The target of one assay is T1, 5-HT2 receptors (Rattus norvegicus, UniProt P14842).
T1 construct: Whole cortex is dissected out and homogenized; from tissue; host or cells: rat whole cortex membranes
The experiment in a line: 3H-spiroperidol binding to rat cortical membranes (5-HT2 receptors). The note with it: Table 1, read-out: 3H-Spiroperidol bindings 5-HT2 receptors IC50. As for the experimental part:
^3 H-spiroperidol binding to rat cortical membranes (5-HT2 Receptors)
50 mM Tris buffer pH 7.7 (at 25° C.) (icecold) stored in the cold: 7.38 gram Trisma®--7.7/l.
Mixed Tris buffer (icecold) made fresh every day jut before use.
10^-5 M Mianserin: 3.01 mg mianserin-HCl/10 ml H2 O, Diluted 1:100.
3×10^-6 M Sulpiride: 3.41 mg sulpiride/10 ml H2 O, Diluted 0.3 ml to 100 ml.
Whatman GF/B filters 25 mm.
Spiroperidol[benzene ring--^3 H--] approx. 30 Ci/mmol from New England Nuclear
(Diluted daily to 5 nM in 3×10^-6 M sulpiride solution).
Ultra Turrax homogenizer.
Rats are killed by guillutination, exsanguinated and their brains removed. Whole cortex is dissected out and homogenized (Ultra Turrax, 10 sec.) in 100 vol (w/v) icecold 50 mM buffer pH 7.7 (at 25° C.). The homogenate is centrifuged twice at 20.000 g (13.000 rpm) for 10 min. at 4° C., with rehomogenization (Ultra Turrax, 10 sec.) of the intermediate pellet in fresh buffer. The pellet is homogenized (Ultra Turrax, 10 sec.) in 80 volumes (w/v) of icecold, freshly prepared mixed Tris buffer.
(§1) Incubation tubes in triplicate receive on ice 100 μl of drugs dissolved in water, 100 μl of 5 nM ^3 H-spiroperidol and 800 μl of the cold membrane suspension. The tubes are incubated at 37° C. for 10 min. and rapidly filtered under vacuum through Whatman GF/B filters. The tubes are rinsed with 5 ml and thereafter the filters with 2×5 ml icecold 50 mM Tris buffer, pH 7.7 (at 25° C.). The radioactivity on the filters is determined by liquid scintillation counting after the addition of 5 ml of picofluor-15. The unspecific binding of ^3 H-spiroperidol is determined by incubating the samples with 10^-6 M mianserine.
Each series consist of 15-16 triple samples (3 controls, 2-3 containing 10^-6 mianserine and two series of test compounds in 5 concentrations).
The means of the control samples and of the 10^-6 M mianserine samples are calculated.

Assay [1] is described as follows: Catalepsy wire mesh, rat, max. Format: in vivo, rats. Particulars: po, read-out: Catalep. ED50 (po). As for the experimental part: Catalepsy wire mesh, rat, max. (ED50 μmol/kg p.o.)
A vertical wire netting (50 cm×49 cm). The meshes (openings) of the netting are square (1 cm×1 cm). The wire diameter is 2 mm.
The animals are labeled and used in groups of five. The test substance is administered orally (p.o.) at 4 dose levels selected from a fixed dose scale.
The animals are placed in the middle of the vertical wire netting 60, 120, 180, 240, 300 and 360 minutes after administration of the test compound. The animals are considered cataleptic when they remain immobile during a period of 15 seconds. This cataleptic reaction is designated +.
If the rats are "atonic" and passively slide down the wire mesh they are considered not cataleptic. If the animals climb up and down the wire mesh they are nor cataleptic. In both situations the designation - is used.

Another assay concerns methylphenidate. The experiment in a line: Methylphenidate antagonism, mice i.p. Format: in vivo. Particulars: Mus musculus, ip, read-out: MePh Antag. ED50 (ip). The protocol:
Methylphenidate antagonism (ED50 μmol/kg i.p.)
Perspex observation cages without bottom and lid, consisting of 5 sections each measuring 12×25×30 cm.
Two hours after injection of test substance, methylphenidate, 60 mg/kg, is injected s.c. After administration of methylphenidate the mice are placed in the observation cages, 2 in each cage, where they remain for exactly 1 hour. The cages are placed on corrugated paper, the corrugations facing upwards. It is examined whether the mice have been biting the corrugated paper or not.
The result is stated in fractions: 0/3, 1/3, 2/3 and 3/3 where 0, 1, 2 and 3 are the number of pairs which have not been biting on receipt of the dose in question.

The next assay has as its system 5-HT, rat fundus strip. The experiment in a line: 5-HT antagonism, rat fundus strip. The note with it: 10 min, read-out: 5HT rat-fundus-strip IC50. As for the experimental part:
5-HT antagonism, rat fundus strip
5-hydroxytryptamine (5-HT).
Rats are killed by a blow on the head and exsanguinated. The stomach fundus is removed and carefully cleaned with Krebs solution at 30° C. The fundus is then stretched over a rounded end of a plastic rod about the thickness of a pencil, whereby the longitudinal direction of the muscle fibers is visible. The fundus is halved by carefully cutting in the central line and in the direction of these fibres. Along this incision two strips with a length of 15-25 mm and with width 1.5-2.5 mm are cut, one from each half of the fundus. The mucosa is then carefully removed. A thread is attached to each end of a strip. One thread is fixed to a pin in the bottom of the organ bath and the other thread is fixed to an isotonic transducer. The strip is kept under a tone of 1.5 to 2.0 g. […] Concentration response curves to 5-HT are obtained by adding 5-HT to the bath in increasing concentrations (0.1 ml of 10^-9 M resulting in 1.0×10^-11 M in the bath, 0.2 ml of 10^-9 M resulting in 3.0×10^-11 M, 0.1 ml of 10^-8 M resulting in about 1×10^-10 M, 0.2 ml of 10^-8 M resulting in about 3×10^-10 M--0.2 ml of 10^-4 resulting in about 3×10^-6 M in the bath). Each concentration of 5-HT is allowed to exert its maximal effect (1-10 min) before the next is added. When the maximal response is reached the tissue is carefully washed. The test substance is added to the bath for 10 min. before examining its effect on a new cumulative 5-HT concentration response curve. From the control concentration effect curve the Km for 5-HT is calculated.
The results are recorded as mean percentage inhibition.
Substrate concentration for 5-HT: 1.0×10^-9 M to 1.0×10^-8 M.
Michaelis-Menten constant for 5-HT is estimated each time.

A further assay deals with T2, D-2 receptors (Rattus norvegicus, UniProt P61169).
T2 construct: The corpora striata are dissected out and homogenized; from tissue; host or cells: rat corpus striatum membranes
T2 sequence (P61169 whole entry): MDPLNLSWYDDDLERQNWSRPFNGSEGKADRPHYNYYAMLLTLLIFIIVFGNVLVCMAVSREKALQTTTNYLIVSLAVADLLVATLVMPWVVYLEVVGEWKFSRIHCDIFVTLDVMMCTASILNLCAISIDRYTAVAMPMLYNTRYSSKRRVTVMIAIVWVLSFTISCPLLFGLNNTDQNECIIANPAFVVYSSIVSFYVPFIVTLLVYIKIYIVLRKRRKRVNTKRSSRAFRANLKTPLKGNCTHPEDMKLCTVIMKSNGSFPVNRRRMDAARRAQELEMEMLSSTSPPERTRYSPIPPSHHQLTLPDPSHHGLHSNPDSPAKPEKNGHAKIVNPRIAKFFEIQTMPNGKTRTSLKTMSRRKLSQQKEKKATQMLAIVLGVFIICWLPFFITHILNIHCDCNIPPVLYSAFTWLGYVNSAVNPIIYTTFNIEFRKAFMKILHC
The experiment in a line: 3H-spiroperidol binding to rat striatal membranes (D-2 receptors). Particulars: Table 1, read-out: 3H-Spiroperidol bindings DA-2 receptors IC50. The protocol: 3H-spiroperidol binding to rat striatal membranes (D-2 receptors)
0.1% Ascorbic acid (icecold) made fresh every day
50 mM Tris buffer pH 7.7 (at 25° C.) (icecold) stored in the cold
50 mM Tris buffer pH 7.5 (at 25° C.), containing 0.2% ascorbic acid
(icecold) made fresh every day just before use
Mixed Tris buffer (icecold) made fresh every day just before use
96 ml 50 mM Tris pH 7.5 (at 25° C.) containing ascorbic acid
Whatman GF/B filters 25 mm
Spiroperidol[benzene ring-^3 H] approximately 30 Ci/mmol
from New England Nuclear. (Diluted daily to 5 nM in 0.1% ascorbic acid)
Rats are killed by guillutination, exsanguinated and their brains removed. The corpora striata are dissected out and homogenized (Ultra Turrax, 10 sec.) in 100 vol (w/v) icecold 50 mM buffer pH 7.7 (at 25° C.). The homogenate is centrifuged twice at 20.000 g (13.000 rpm) for 10 min at 4° C., with rehomogenization (Ultra Turrax, 10 sec.) of the intermediate pellet in fresh buffer. The pellet is homogenized (Ultra Turrax, 10 sec.) in 200 volumes (w/v) of icecold, freshly prepared mixed Tris buffer.
as §1, with “0.1% ascorbic acid,” for “water,”, “nM^3” for “nM ^3”, “tissue suspension .” for “membrane suspension.”, “min” for “min.”, “scintillation liquid (e.g. picofluor-15).” for “5 ml of picofluor-15.”, “10^-6M (+)butaclamol.” for “10^-6 M mianserine.”
Each series consists of 15 triple samples (3 controls, 2 containing 10^-6M (+)butaclamol, and two series of test compounds in 5 concentrations).
The means of the controls and (+)butaclamol are calculated.

Where [2] appears, read: Table 1, rat, p.o., max. effect within 6 h.
[3] abbreviates: Table 1, mice, i.p., 2 h before methylphenidate 60 mg/kg s.c.
Setting [4] is: Table 1, rat fundus strip in vitro, 10 min pre-exposure.

The record followed here is US4525360A, “Anti-psychotic phenylindene derivatives and acid addition salts thereof” (Kefalas A/S, priority 1982, dated 1985).

What is called IC50 is the concentration that inhibits the measured activity by half. What is called ED50 is the midpoint of the dose-response relation.

Counter-ions that a name gives are not always drawn. Like-named read-outs stand apart in the source and are kept apart here. Some results are limits rather than exact numbers.

T1 sequence (P14842 whole entry): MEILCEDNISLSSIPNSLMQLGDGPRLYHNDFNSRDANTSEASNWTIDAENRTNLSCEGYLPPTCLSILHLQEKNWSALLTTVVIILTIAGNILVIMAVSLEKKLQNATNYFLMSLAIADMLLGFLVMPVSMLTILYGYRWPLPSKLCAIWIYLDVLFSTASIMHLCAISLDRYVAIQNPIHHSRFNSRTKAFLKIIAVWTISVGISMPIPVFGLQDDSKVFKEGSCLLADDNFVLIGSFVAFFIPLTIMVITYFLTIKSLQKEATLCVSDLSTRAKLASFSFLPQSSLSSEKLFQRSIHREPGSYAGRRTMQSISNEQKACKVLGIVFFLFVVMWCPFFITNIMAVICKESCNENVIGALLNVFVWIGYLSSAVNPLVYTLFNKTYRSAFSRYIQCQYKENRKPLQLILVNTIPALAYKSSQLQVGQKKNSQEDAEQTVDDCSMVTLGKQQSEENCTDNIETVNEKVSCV

For the molecule `OCCN1CCN(CC/C=C2/c3ccccc3Sc3ccc(C(F)(F)F)cc32)CC1` [Cis(Z)-flupentixol, reference compound], the half-maximal inhibitory concentration (IC50) was 13 nM on 5-HT2 receptors and 1050 nM with 5-HT, rat fundus strip (Rattus norvegicus). For the same molecule, the 50% effective dose (ED50) is 2.1 µmol/kg in assay [1] (Rattus norvegicus, 6 h) and 0.14 µmol/kg in the assay on methylphenidate.
Regarding `O=C(c1ccc(F)cc1)C1CCN(CCn2c(=O)[nH]c3ccccc3c2=O)CC1` [Ketanserin, reference compound], the IC50 at D-2 receptors was 2300 nM; in the assay on 5-HT, rat fundus strip (Rattus norvegicus), over 10000 nM.
In the case of `Cc1ccc2c(c1)C(C1=CCN(CCO)CC1)=CC2c1ccc(F)cc1` (centres unmarked) [Lu 19-153, 3-(4'-Fluorophenyl)-1-(1-hydroxyethyl-1,2,3,6-tetrahydropyrid-4-yl)-6-methyl-1-indene, hydrobromide], the IC50 at 5-HT2 receptors was 4.6 nM; in the assay on 5-HT, rat fundus strip (Rattus norvegicus) it was 34 nM. The ED50 in assay [1] (Rattus norvegicus, 6 h) is 1.4 µmol/kg; with methylphenidate it was 0.39 µmol/kg.
In the case of `OCCN1CCC(C2=CC(c3ccc(F)cc3)c3ccc(F)cc32)CC1` (centres unmarked) [Lu 19-158, hydrochloride], the half-maximal inhibitory concentration (IC50) on 5-HT2 receptors came out at 2.8 nM; at D-2 receptors, 12 nM; with 5-HT, rat fundus strip (Rattus norvegicus), 26 nM. Moreover, the median effective dose (ED50) in assay [1] (Rattus norvegicus, 6 h) stood at 26 µmol/kg; in the assay on methylphenidate it was 4.2 µmol/kg.
For `OCCN1CC=C(C2=CC(c3ccc(F)cc3)c3ccc(C(F)(F)F)cc32)CC1` (centres unmarked) [Lu 20-004, 3-(4'-Fluorophenyl)-1-(1-hydroxyethyl-1,2,3,6-tetrahydropyrid-4-yl)-6-trifluoromethyl-1-indene, hydrobromide], the IC50 at 5-HT2 receptors is 35 nM; in the assay with 5-HT, rat fundus strip (Rattus norvegicus), 3260 nM. The median effective dose (ED50) was 1.3 µmol/kg in assay [1] (Rattus norvegicus, 6 h) and 1 µmol/kg with methylphenidate.
Turning to `Cc1ccc2c(c1)C(C1CCN(CCO)CC1)=CC2c1ccc(F)cc1` (centres unmarked) [Lu 20-008, 3-(4'-Fluorophenyl)-1-(1-hydroxyethyl-4-piperidyl)-6-methyl-1-indene, hydrochloride], the half-inhibitory concentration (IC50) at 5-HT2 receptors stood at 4 nM; on D-2 receptors, 8.9 nM; in the assay on 5-HT, rat fundus strip (Rattus norvegicus), 16 nM. The median effective dose (ED50) in assay [1] (Rattus norvegicus, 6 h) amounted to 2.3 µmol/kg; with methylphenidate, 0.64 µmol/kg.
For the molecule `Cc1ccc2c(c1)C(C1CCN(C)CC1)=CC2c1ccc(F)cc1` (centres unmarked) [Lu 20-048, 3-(4'-Fluorophenyl)-6-methyl-1-(1-methyl-4-piperidyl)-1-indene, hydrobromide], the ED50 turned out to be 3.4 µmol/kg in assay [1] (setting [2]) and 0.53 µmol/kg in the assay on methylphenidate (setting [3]). The IC50 in the assay with 5-HT, rat fundus strip (setting [4]) was 42 nM.
For the molecule `O=C1NCCN1CCN1CCC(C2C=C(c3ccc(F)cc3)c3ccc(F)cc32)CC1` (centres unmarked) [Lu 20-053, 6-Fluoro-3-(4'-fluorophenyl)-1-(1-(2-imidazolidinon-1-ylethyl)-4-piperidyl)-2-indene], the half-maximal inhibitory concentration (IC50) on 5-HT2 receptors is 31 nM; on D-2 receptors, 83 nM; in the assay on 5-HT, rat fundus strip (Rattus norvegicus) it was 69 nM. Moreover, the ED50 in assay [1] (Rattus norvegicus, 6 h) is over 94 µmol/kg; in the assay on methylphenidate, 19.5 µmol/kg.
`Cc1ccc2c(c1)C(C1CCN(CCN3CCNC3=O)CC1)=CC2c1ccc(F)cc1` (centres unmarked) [Lu 20-064, 3-(4'-Fluorophenyl)-1-(1-(2-imidazolidinon-1-ylethyl)-4-piperidyl)-6-methyl-1-indene, oxalate]: the figures for the median effective dose (ED50) (in assay [1] (setting [2]); in the assay with methylphenidate (setting [3])) were 6.7 µmol/kg and 0.86 µmol/kg, respectively. Moreover, the half-maximal inhibitory concentration (IC50) in the assay with 5-HT, rat fundus strip (setting [4]) was determined as 22 nM.
Consider `CN1CCC(C2=CC(c3ccc(F)cc3)c3ccc(C(F)(F)F)cc32)CC1` (centres unmarked) [Lu 20-071, 3-(4'-Fluorophenyl)-1-(1-methyl-4-piperidyl)-6-trifluoromethyl-1-indene, hydrobromide], for which the IC50 is 15 nM at 5-HT2 receptors and 1000 nM in the assay on 5-HT, rat fundus strip (Rattus norvegicus). Also, the ED50 is 2 µmol/kg in assay [1] (Rattus norvegicus, 6 h) and 1.7 µmol/kg in the assay with methylphenidate.
In the case of `CSc1ccc2c(c1)C(N1CCN(C)CC1)Cc1ccccc1S2` (centres unmarked) [Methiothepin, reference compound], the IC50 on 5-HT2 receptors is 6.8 nM; at D-2 receptors it was 2.6 nM; in the assay with 5-HT, rat fundus strip (Rattus norvegicus) it was 58 nM. For the same molecule, the ED50 in assay [1] (Rattus norvegicus, 6 h) was 2.3 µmol/kg; with methylphenidate, 2.5 µmol/kg.
